Measured values taken from ChEMBL document CHEMBL3608226, “Synthesis and biological evaluation of phaitanthrin congeners as anti-mycobacterial agents” (2015).
In brackets after ≈: the same amount, converted by molar mass.

Tested on: Mycobacterium tuberculosis
Assay: Antimycobacterial activity against multi-drug resistant Mycobacterium tuberculosis
Assay type: functional

NNC(=O)c1ccncc1 [ISONIAZID]
MIC: 4 µg/mL (≈ 29.2 µM)

O=C1c2ccccc2-n2c1nc1ccccc1c2=O [TRYPTANTHRIN]
MIC: 0.5 µg/mL (≈ 2.01 µM)
